Laboratory results published in ChEMBL document CHEMBL3856199, “Melanoma-targeted delivery system (part 2): Synthesis, radioiodination and biological evaluation in B16F0 bearing mice” (Eur J Med Chem, 2016).

Experiments:
[1] = Drug uptake in bladder of C57BL/6J mouse implanted with mouse B16F0 cells at 3.7 MBq, iv measured at 1 hr post injection by scintigraphic imaging analysis; format: ADME, organism-based, Urinary bladder; details: in vivo
[2] = Drug uptake in tumor of C57BL/6J mouse implanted with mouse B16F0 cells at 3.7 MBq, iv measured at 1 hr post injection by gamma counting analysis; format: ADME, organism-based, Neoplasm; details: in vivo
[3] = Drug uptake in tumor of C57BL/6J mouse implanted with mouse B16F0 cells at 3.7 MBq, iv measured at 3 hrs post injection by gamma counting analysis; format: ADME, organism-based, Neoplasm; details: in vivo
[4] = Drug uptake in tumor of C57BL/6J mouse implanted with mouse B16F0 cells at 3.7 MBq, iv measured at 6 hrs post injection by gamma counting analysis; format: ADME, organism-based, Neoplasm; details: in vivo
[5] = Drug uptake in tumor of C57BL/6J mouse implanted with mouse B16F0 cells at 3.7 MBq, iv measured at 72 hrs post injection by gamma counting analysis; format: ADME, organism-based, Neoplasm; details: in vivo
[6] = Drug uptake in liver of C57BL/6J mouse implanted with mouse B16F0 cells at 3.7 MBq, iv measured at 1 hr post injection by gamma counting analysis; format: ADME, organism-based; details: in vivo
[7] = Drug uptake in liver of C57BL/6J mouse implanted with mouse B16F0 cells at 3.7 MBq, iv measured at 3 hrs post injection by gamma counting analysis; format: ADME, organism-based; details: in vivo
[8] = Drug uptake in liver of C57BL/6J mouse implanted with mouse B16F0 cells at 3.7 MBq, iv measured at 6 hrs post injection by gamma counting analysis; format: ADME, organism-based; details: in vivo
[9] = Drug uptake in liver of C57BL/6J mouse implanted with mouse B16F0 cells at 3.7 MBq, iv measured at 24 hrs post injection by gamma counting analysis; format: ADME, organism-based; details: in vivo
[10] = Drug uptake in kidney of C57BL/6J mouse implanted with mouse B16F0 cells at 3.7 MBq, iv measured at 6 hrs post injection by gamma counting analysis; format: ADME, organism-based; details: in vivo
[11] = Drug uptake in kidney of C57BL/6J mouse implanted with mouse B16F0 cells at 3.7 MBq, iv measured at 24 hrs post injection by gamma counting analysis; format: ADME, organism-based; details: in vivo
[12] = Drug uptake in kidney of C57BL/6J mouse implanted with mouse B16F0 cells at 3.7 MBq, iv measured at 72 hrs post injection by gamma counting analysis; format: ADME, organism-based; details: in vivo
[13] = Drug uptake in stomach of C57BL/6J mouse implanted with mouse B16F0 cells at 3.7 MBq, iv measured at 24 hrs post injection by gamma counting analysis; format: ADME, organism-based; details: in vivo
[14] = Drug uptake in stomach of C57BL/6J mouse implanted with mouse B16F0 cells at 3.7 MBq, iv measured at 72 hrs post injection by gamma counting analysis; format: ADME, organism-based; details: in vivo
[15] = Drug uptake in intestine of C57BL/6J mouse implanted with mouse B16F0 cells at 3.7 MBq, iv measured at 1 hr post injection by gamma counting analysis; format: ADME, organism-based; details: in vivo
[16] = Drug uptake in intestine of C57BL/6J mouse implanted with mouse B16F0 cells at 3.7 MBq, iv measured at 24 hrs post injection by gamma counting analysis; format: ADME, organism-based; details: in vivo
[17] = Drug uptake in thyroid/submaxillary glands of C57BL/6J mouse implanted with mouse B16F0 cells at 3.7 MBq, iv measured at 1 hr post injection by gamma counting analysis; format: ADME, organism-based, Submaxillary gland/Thyroid; details: in vivo
[18] = Drug uptake in thyroid/submaxillary glands of C57BL/6J mouse implanted with mouse B16F0 cells at 3.7 MBq, iv measured at 3 hrs post injection by gamma counting analysis; format: ADME, organism-based, Submaxillary gland/Thyroid; details: in vivo
[19] = Drug uptake in thyroid/submaxillary glands of C57BL/6J mouse implanted with mouse B16F0 cells at 3.7 MBq, iv measured at 6 hrs post injection by gamma counting analysis; format: ADME, organism-based, Submaxillary gland/Thyroid; details: in vivo
[20] = Drug uptake in thyroid/submaxillary glands of C57BL/6J mouse implanted with mouse B16F0 cells at 3.7 MBq, iv measured at 24 hrs post injection by gamma counting analysis; format: ADME, organism-based, Submaxillary gland/Thyroid; details: in vivo
[21] = Drug uptake in eyes of C57BL/6J mouse implanted with mouse B16F0 cells at 3.7 MBq, iv measured at 3 hrs post injection by gamma counting analysis; format: ADME, organism-based, Eye; details: in vivo
[22] = Drug uptake in eyes of C57BL/6J mouse implanted with mouse B16F0 cells at 3.7 MBq, iv measured at 24 hrs post injection by gamma counting analysis; format: ADME, organism-based, Eye; details: in vivo
[23] = Drug uptake in blood of C57BL/6J mouse implanted with mouse B16F0 cells at 3.7 MBq, iv measured at 1 hr post injection by gamma counting analysis; format: ADME, organism-based; details: in vivo
[24] = Drug uptake in blood of C57BL/6J mouse implanted with mouse B16F0 cells at 3.7 MBq, iv measured at 3 hrs post injection by gamma counting analysis; format: ADME, organism-based; details: in vivo
[25] = Drug uptake in blood of C57BL/6J mouse implanted with mouse B16F0 cells at 3.7 MBq, iv measured at 6 hrs post injection by gamma counting analysis; format: ADME, organism-based; details: in vivo
[26] = Drug uptake in muscles of C57BL/6J mouse implanted with mouse B16F0 cells at 3.7 MBq, iv measured at 6 hrs post injection by gamma counting analysis; format: ADME, organism-based, Muscle tissue; details: in vivo
[27] = Drug uptake in muscles of C57BL/6J mouse implanted with mouse B16F0 cells at 3.7 MBq, iv measured at 24 hrs post injection by gamma counting analysis; format: ADME, organism-based, Muscle tissue; details: in vivo
[28] = Drug uptake in muscles of C57BL/6J mouse implanted with mouse B16F0 cells at 3.7 MBq, iv measured at 72 hrs post injection by gamma counting analysis; format: ADME, organism-based, Muscle tissue; details: in vivo
Mus musculus [29] = assay: Toxicity in C57BL/6J mouse assessed as lethargy at 3.7 MBq, iv measured up to 72 hrs post injection; format: organism-based; details: in vivo
Mus musculus [30] = assay: Toxicity in C57BL/6J mouse assessed as closed eyes at 3.7 MBq, iv measured up to 72 hrs post injection; format: organism-based; details: in vivo
[31] = Ratio of drug uptake in tumor to blood in C57BL/6J mouse implanted with mouse B16F0 cells at 3.7 MBq, iv measured at 1 hr post injection; format: ADME, organism-based
[32] = Ratio of drug uptake in tumor to blood in C57BL/6J mouse implanted with mouse B16F0 cells at 3.7 MBq, iv measured at 3 hrs post injection; format: ADME, organism-based
[33] = Ratio of drug uptake in tumor to blood in C57BL/6J mouse implanted with mouse B16F0 cells at 3.7 MBq, iv measured at 6 hrs post injection; format: ADME, organism-based; details: tumour
[34] = Ratio of drug uptake in tumor to blood in C57BL/6J mouse implanted with mouse B16F0 cells at 3.7 MBq, iv measured at 24 hrs post injection; format: ADME, organism-based
[35] = Ratio of drug uptake in tumor to blood in C57BL/6J mouse implanted with mouse B16F0 cells at 3.7 MBq, iv measured at 72 hrs post injection; format: ADME, organism-based
[36] = Ratio of drug uptake in tumor to muscle in C57BL/6J mouse implanted with mouse B16F0 cells at 3.7 MBq, iv measured at 1 hr post injection; format: ADME, organism-based; details: in vivo
[37] = Ratio of drug uptake in tumor to muscle in C57BL/6J mouse implanted with mouse B16F0 cells at 3.7 MBq, iv measured at 24 hrs post injection; format: ADME, organism-based; details: in vivo
[38] = Ratio of drug uptake in tumor to muscle in C57BL/6J mouse implanted with mouse B16F0 cells at 3.7 MBq, iv measured at 72 hrs post injection; format: ADME, organism-based; details: in vivo

SMILES | Drug uptake [1] | Drug uptake [2] | Drug uptake [3] | Drug uptake [4] | Drug uptake [5] | Drug uptake [6] | Drug uptake [7] | Drug uptake [8] | Drug uptake [9] | Drug uptake [10] | Drug uptake [11] | Drug uptake [12] | Drug uptake [13] | Drug uptake [14] | Drug uptake [15] | Drug uptake [16] | Drug uptake [17] | Drug uptake [18] | Drug uptake [19] | Drug uptake [20] | other results
CCN(CC)CCNC(=O)c1cnc2cc(NC(=O)COc3ccc(SSCCOC(=O)O[C@H]4C[C@H](n5cc([125I])c(=O)[nH]c5=O)O[C@@H]4CO)cc3)ccc2n1 | Active | 2.23 % ID/g | 2.75 % ID/g | 1.94 % ID/g | 0.37 % ID/g | 1.12 % ID/g | 1.23 % ID/g | 0.47 % ID/g | 0.13 % ID/g | 0.87 % ID/g | 0.2 % ID/g | 0.32 % ID/g | 1.01 % ID/g | 0.23 % ID/g | 2.51 % ID/g | 0.4 % ID/g | 11.05 % ID/g | 20.47 % ID/g | 26.6 % ID/g | 19.5 % ID/g | Drug uptake [21]: 0.85 % ID/g; Drug uptake [22]: 0.09 % ID/g; Drug uptake [23]: 2.14 % ID/g; Drug uptake [24]: 2.57 % ID/g; Drug uptake [25]: 1 % ID/g; Drug uptake [26]: 0.19 % ID/g; Drug uptake [27]: 0.04 % ID/g; Drug uptake [28]: 0.06 % ID/g; Activity (Mus musculus [29]): Non-Toxic; Activity (Mus musculus [30]): Non-Toxic; Kp at 1 h [31]: 1.11; Kp at 3 h [32]: 1.07; Ratio [33]: 2.08; Kp at 24 h [34]: 5.63; Kp at 72 h [35]: 1.12; Ratio [36]: 4.84; Ratio [37]: 18.24; Ratio [38]: 5.28
O=c1[nH]c(=O)n([C@H]2C[C@H](O)[C@@H](CO)O2)cc1[125I] | Active | 2.79 % ID/g | 1.66 % ID/g | 1.19 % ID/g | 0.33 % ID/g | 1.3 % ID/g | 0.63 % ID/g | 0.24 % ID/g | 0.08 % ID/g | 0.38 % ID/g | 0.12 % ID/g | 0.08 % ID/g | 0.62 % ID/g | 0.2 % ID/g | 1.62 % ID/g | 0.34 % ID/g | 13.63 % ID/g | 14.55 % ID/g | 14.26 % ID/g | 22.45 % ID/g | Drug uptake [21]: 0.43 % ID/g; Drug uptake [22]: 0.04 % ID/g; Drug uptake [23]: 3.17 % ID/g; Drug uptake [24]: 1.49 % ID/g; Drug uptake [25]: 0.52 % ID/g; Drug uptake [26]: 0.11 % ID/g; Drug uptake [27]: 0.02 % ID/g; Drug uptake [28]: 0.03 % ID/g; Activity (Mus musculus [29]): Non-Toxic; Activity (Mus musculus [30]): Non-Toxic; Kp at 1 h [31]: 0.89; Kp at 3 h [32]: 1.14; Ratio [33]: 2.58; Kp at 24 h [34]: 7.24; Kp at 72 h [35]: 14.4; Ratio [36]: 2.96; Ratio [37]: 24.35; Ratio [38]: 14.58
